From article PMC11678869, “Functional Role of Odorant-Binding Proteins in Response to Sex Pheromone Component Z8-14:Ac in Grapholita molesta (Busck)” (Insects, 2024)

How the values were obtained:
PFM males [1] = assay: Field trapping with delta traps, peach orchard; format: in vivo, Grapholita funebrana
Procedure: (§1) To determine the inhibitory effects on OFM male adults and the impact on the trapping effects of PFM male adults, varying amounts of Z8-14:Ac (0, 5, 10, 25, 50, 75, 100, 125, 150 μg) or Z10-14:Ac (0, 25, 50, 100, 150, 250, 350, 450, and 550 μg) were added to rubber septa loaded with a constant dosage of the main pheromone (500 μg of Z8-12:Ac and 20 μg of E8-12:Ac) of the PFM. Trapping experiments of Z8-14:Ac were carried out in peach and pear orchards in Yan’an and Xinjiang (China), respectively. Trapping tests of Z10-14:Ac were performed in pear orchards in Xinjiang (China). Each orchard had nine plots, with three plots in one field. Each plot consisted of a linear arrangement of traps loaded with a constant dosage of the main pheromones and different percentages of the secondary pheromone Z8-14:Ac or Z10-14:Ac of the PFM. Plots in the same field were placed 30 m apart, and fields were ≥1 km apart. The traps were hung 1.4 m from the ground on a suspension bracket between two rows of peach or pear trees from 10 June to 25 July 2021 in Xinjiang and from 15 June to 30 July 2021 in Yan’an. The positions of the traps within the plot were randomly arranged. Every 5 days, counts were taken, and the traps were rotated to the adjacent position to avoid any potential position effects. The septa loaded with sex pheromone components were replaced with new ones after every 15 days of suspension. The data were analyzed using a one-way ANOVA, and the differences in the average trapping of OFM and PFM males using sex attractants containing different amounts of Z8-14:Ac or Z10-14:Ac were further analyzed using Tukey’s HSD test, both of which were performed using SPSS 23.0.

OFM males = assay: Field trapping with delta traps, pear orchard; format: in vivo, Grapholita molesta; details: for Inhibition Rate of OFM Males: vs 100:4:0
Procedure: as §1

PFM males [2] = assay: Field trapping with delta traps, pear orchard; format: in vivo, Grapholita funebrana
Procedure: as §1

PFM male antennae = assay: Electroantennogram (EAG) analysis; parameters: species or system Grapholita funebrana; details: 20, 200 and 2000 μg doses
Procedure: Electroantennogram (EAG) equipment (Syntech, Hilversum, The Netherlands) was used to record the antennal responses of the OFM and PFM adults to Z8-12:Ac, E8-12:Ac, Z8-12:OH, Z8-14:Ac, and Z10-14:Ac. These sex pheromone compounds were diluted with liquid paraffin to prepare a stimulus solution of 100 μg/μL, which was subsequently diluted to 10 and 1 μg/μL. Antenna from 3-day-old OFM and 2- to 4-day-old PFM virgin males were excised at its base, with the distal part of the terminal segment being removed. Then, the treated antenna was attached to electrode holders with SpectraR360 conducting gel. A stimulus controller (model CS-55, Syntegon Technology, Waiblingen, Germany) continuously supplied a humidified air stream at a rate of 500 mL/min. Then, 20 μL of each stimulus solution was adsorbed onto a twice-folded filter paper strip (0.5 cm × 4 cm) placed on the wide section of a l mL pipette tip, which served as an odorant cartridge. Vapor stimuli were delivered by an air compressor into the constant air stream described above, flowing in a copper delivery tube (i.d. 8 mm) with the outlet positioned approximately 1 cm from the antenna. The EAG amplitude tests of the OFM and PFM males’ responses to sex pheromones started with solvent control stimuli (20 μL of liquid paraffin), followed by stimulation with 20, 200, and 2000 μg doses (20 μL of 1.0, 10.0, and 100.0 μg/μL of liquid paraffin solutions, respectively) of stimulus in sequence. The solvent control was performed at the end of the run. To control for variations among antennae, each sample was tested on 10 antennae of different males. The EAG signals and data were analyzed using EAG 2000 software (Syntech, Hilversum, The Netherlands). The corrected EAG amplitude value = absolute EAG amplitude value − (EAGck1 + EAGck2)/2, where EAGck1 and EAGck2 represent the absolute EAG amplitude values of the solvent control before and after measuring each stimulus, respectively. The relative EAG response of the OFM and PFM males to the same doses of sex pheromones were subjected to an analysis of independent sample t-test (p = 0.05) using SPSS version 23.0 (IBM).

[3] = Z8-12:Ac/E8-12:Ac/Z8-14:Ac 500/20/5 μg (100:4:1)
[4] = Z8-12:Ac/E8-12:Ac/Z8-14:Ac 500/20/10 μg (100:4:2)
[5] = Z8-12:Ac/E8-12:Ac/Z8-14:Ac 500/20/25 μg (100:4:5)
[6] = Z8-12:Ac/E8-12:Ac/Z8-14:Ac 500/20/50 μg (100:4:10)
[7] = Z8-12:Ac/E8-12:Ac/Z8-14:Ac 500/20/75 μg (100:4:15)
[8] = Z8-12:Ac/E8-12:Ac/Z8-14:Ac 500/20/100 μg (100:4:20)
[9] = Z8-12:Ac/E8-12:Ac/Z8-14:Ac 500/20/125 μg (100:4:25)
[10] = Z8-12:Ac/E8-12:Ac/Z8-14:Ac 500/20/150 μg (100:4:30)
[11] = adding 1–30% of Z8-14:Ac to the PFM sex attractants
[12] = pear orchard, Z8-12:Ac/E8-12:Ac/Z8-14:Ac 500/20/5 μg (100:4:1)
[13] = pear orchard, Z8-12:Ac/E8-12:Ac/Z8-14:Ac 500/20/10 μg (100:4:2)
[14] = pear orchard, Z8-12:Ac/E8-12:Ac/Z8-14:Ac 500/20/25 μg (100:4:5)
[15] = pear orchard, Z8-12:Ac/E8-12:Ac/Z8-14:Ac 500/20/50 μg (100:4:10)
[16] = pear orchard, Z8-12:Ac/E8-12:Ac/Z8-14:Ac 500/20/75 μg (100:4:15)
[17] = pear orchard, Z8-12:Ac/E8-12:Ac/Z8-14:Ac 500/20/100 μg (100:4:20)
[18] = pear orchard, Z8-12:Ac/E8-12:Ac/Z8-14:Ac 500/20/125 μg (100:4:25)
[19] = pear orchard, Z8-12:Ac/E8-12:Ac/Z8-14:Ac 500/20/150 μg (100:4:30)

`CCCCC/C=C\CCCCCCCOC(C)=O` [Z8-14:Ac, (Z)-8-tetradecenyl acetate] was tested, and the “Total PFM Males/Trap” value (PFM males [1]; [3]) was 387.73 ± 18.31 a Males/Trap, the “Total PFM Males/Trap” value (PFM males [1]; [4]) was 287.22 ± 7.96 a Males/Trap and the “Total PFM Males/Trap” value (PFM males [1]; [5]) was 314.53 ± 26.14 a Males/Trap. The “Total PFM Males/Trap” value (PFM males [1]; [6]) was 331.58 ± 17.46 a Males/Trap, the “Total PFM Males/Trap” value (PFM males [1]; [7]) was 297.81 ± 4.75 a Males/Trap and the “Total PFM Males/Trap” value (PFM males [1]; [8]) was 285.62 ± 6.55 a Males/Trap. For the same compound, the “Total PFM Males/Trap” value (PFM males [1]; [9]) was 352.89 ± 32.42 a Males/Trap, the “Total PFM Males/Trap” value (PFM males [1]; [10]) was 348.30 ± 22.77 a Males/Trap and the “effect on the number of PFM males” value (PFM males [1]; [11]) was “neither significantly increased nor inhibited”. The “maximum reduction of the capture of OFM males” value (OFM males; field trials, varying ratios of Z8-14:Ac (1% to 30%) added to Z8-12:Ac and E8-12:Ac) was “up to 96.54%”, the “Total OFM Males/Trap” value (OFM males; [12]) was 59.24 ± 10.14 b Males/Trap and the “Inhibition Rate of OFM Males” value (OFM males; [12]) was 65.04%. For the same compound, the “Total OFM Males/Trap” value (OFM males; [13]) was 61.31 ± 7.21 b Males/Trap, the “Inhibition Rate of OFM Males” value (OFM males; [13]) was 63.82% and the “Total OFM Males/Trap” value (OFM males; [14]) was 21.36 ± 6.22 c Males/Trap. For the same compound, the “Inhibition Rate of OFM Males” value (OFM males; [14]) was 87.40%, the “Total OFM Males/Trap” value (OFM males; [15]) was 12.05 ± 0.91 c Males/Trap and the “Inhibition Rate of OFM Males” value (OFM males; [15]) was 92.89%. For the same compound, the “Total OFM Males/Trap” value (OFM males; [16]) was 8.95 ± 2.69 c Males/Trap, the “Inhibition Rate of OFM Males” value (OFM males; [16]) was 94.72% and the “Total OFM Males/Trap” value (OFM males; [17]) was 12.74 ± 6.57 c Males/Trap. For the same compound, the “Inhibition Rate of OFM Males” value (OFM males; [17]) was 92.48%, the “Total OFM Males/Trap” value (OFM males; [18]) was 5.86 ± 1.50 c Males/Trap and the “Inhibition Rate of OFM Males” value (OFM males; [18]) was 96.54%. For the same compound, the “Total OFM Males/Trap” value (OFM males; [19]) was 10.33 ± 2.98 c Males/Trap, the “Inhibition Rate of OFM Males” value (OFM males; [19]) was 93.90% and the “reduction of the number of OFM males caught” value (OFM males; pear orchard, adding 5–30% of Z8-14:Ac to Z8-12:Ac and E8-12:Ac) was “more than 86%”. The “reduction of the capture of OFM males” value (OFM males; pear orchards, adding 1–2% of Z8-14:Ac to Z8-12:Ac and E8-12:Ac (100:4)) was 63.82–65.04%, the “Total PFM Males/Trap” value (PFM males [2]; [3]) was 64.07 ± 6.89 a Males/Trap and the “Total PFM Males/Trap” value (PFM males [2]; [4]) was 45.47 ± 6.64 a Males/Trap. For the same compound, the “Total PFM Males/Trap” value (PFM males [2]; [5]) was 43.06 ± 0.34 a Males/Trap, the “Total PFM Males/Trap” value (PFM males [2]; [6]) was 53.73 ± 7.04 a Males/Trap and the “Total PFM Males/Trap” value (PFM males [2]; [7]) was 48.57 ± 6.31 a Males/Trap. The “Total PFM Males/Trap” value (PFM males [2]; [8]) was 42.36 ± 8.46 a Males/Trap, the “Total PFM Males/Trap” value (PFM males [2]; [9]) was 57.52 ± 21.06 a Males/Trap and the “Total PFM Males/Trap” value (PFM males [2]; [10]) was 72.67 ± 12.44 a Males/Trap. The “effect on the number of PFM males” value (PFM males [2]; [11]) was “neither significantly increased nor inhibited” and the “EAG response of PFM males” value (PFM male antennae) was “moderate EAG response”.
